The text below walks through data of patent publication US20210100832A1, “INJECTABLE COMPOSITION FOR THE TREATMENT OF MUSCULOSKELETAL DISORDERS AND METHODS OF USE THEREOF” (Patchor Ltd., priority 2019, published 2021).

Assay [1] has as its system wistar rats with knee osteoarthritis (ACLT with MMx). The assay can be described thus: Weight bearing (incapacitance tester) in rat knee OA induced by ACLT with medial meniscectomy. Type of assay: in vivo. To be noted: 150 microliters into the knee; 20 days post treatment (day 34); *p=0.0012, **p=0.0458; FIG. 2. On the procedure:
Induction of knee osteoarthritis was performed by an anterior cruciate ligament transaction (ACLT) with medial meniscectomy (MMx) on one leg of wistar rats while the contralateral knee served as self-control. After the procedure the animals were divided into three experimental groups of 7 animals per group. Control group was treated by injection of 150 microliters of 1% HA into the knee. Experimental groups were treated by injection of 150 microliters of either GR or GR-HA.
Formulation for dosing of control group was taken from commercial HA-1% viscosupplementation injection (Arthrease 1% sodium hyaluronate Lot R10008G, produced by Bio-Technology General). GR+HA was prepared by Patchor's standard procedures, as described in International Patent Publication No. WO 2009/150651 A1, of mixing HA with GM or with GR. All injections volume was 150 microliters. The positive control HA group was treated immediately post surgery and again at day 14 post surgery, and the HA−CM−GM was treated only once at day 14 post surgery. The experimental outcome was assessed by measuring weight bearing on the OA leg using an incapacitance tester.

For assay [2], the target named is galectin-3 (Homo sapiens, UniProt P17931). To be noted: reference [8]; cited from earlier work.
Assay [3] deals with wistar rats with knee osteoarthritis (ACLT with MMx). Kind of assay: Von Frey filament mechanical nociceptive threshold test in rat knee OA. In kind it is in vivo. On the procedure: As described in Example 3, OA was induced on one leg of wistar rats while the contralateral knee served as self-control. Thereafter, 14 rats were divided into two experimental groups. 7 were treated by injection of HA to the knee, as a positive control, and 7 were injected with GR. Injection volume was 150 microliters.
The experimental outcome was assessed using the Von Frey filament method for detection of mechanical nociceptive threshold test.

galectin-3, sequence (P17931 whole entry, species assumed): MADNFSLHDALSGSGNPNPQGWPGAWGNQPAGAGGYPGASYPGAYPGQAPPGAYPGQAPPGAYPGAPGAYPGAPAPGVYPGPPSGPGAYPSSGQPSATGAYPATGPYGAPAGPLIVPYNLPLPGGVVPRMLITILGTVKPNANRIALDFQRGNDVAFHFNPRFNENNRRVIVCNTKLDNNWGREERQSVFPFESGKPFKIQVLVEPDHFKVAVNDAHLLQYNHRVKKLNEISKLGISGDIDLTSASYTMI

Galactoarabino-Rhamnogalacturonan [GR]: in assay [1], the “weight bearing ability on the operated OA leg compared to HA group” value is recorded as “significant increase in weight bearing ability”. Further, in assay [2], the “inhibition of galectin-3” value was “potent inhibitors of galectin-3”. Further, the “pain response compared to control HA (Von Frey)” value in assay [3] (150 microliters into OA knee, FIG. 3) was “significantly reduced pain response”. The “nociceptive threshold of OA leg versus control HA” value in assay [3] (1 day post treatment, p=0.02) is “significant reduction in nociceptive threshold”; in assay [3] (19 days post treatment, p=0.007), “significant reduction in nociceptive threshold”. Besides, the “nociceptive reaction in the healthy legs, GR versus HA group” value in assay [3] (healthy contralateral legs, data not shown) was “No difference in nociceptive reaction”.

Galactomannan [GM]: the “inhibition of galectin-3” value in assay [2] is recorded as “potent inhibitors of galectin-3”.
